Patent US20230139056A1, “METHODS, COMPOSITIONS AND REAGENTS FOR PREPARING COMPOUNDS” (Regents of the University of Minnesota, priority 2021, published 2023)

Target: T1, SyrB2 halogenase (Pseudomonas syringae pv. syringae, UniProt Q9RBY6)
T1 construct: His-tag (inferred from the pET-28a(+) vector and Ni HisTrap purification); made in house; host or cells: E. coli BL21-Gold (DE3)
Test: Fluorination assay of Thr by SyrB2 halogenase with ligator (LC-MS/MS)
Assay type: biochemical
Method: In an anaerobic glovebag (98% N2/2% H2, Coy Laboratories), all plasticware, solutions, and solids were allowed to equilibrate overnight before use. Stock solutions of RXN buffer (20 mM HEPES, pH=7.5), 20G (100 mM in RXN buffer, pH=7.5), NOG (150 mM in RXN buffer, pH=7.5), and Milli-Q water were degassed using a vacuum manifold on a Schlenk Line apparatus. At least three cycles of vacuum and subsequent equilibration with Argon gas were performed before transfer to the glovebag. Halide Salts (NaCl, NaF) and ferrous ammonium sulfate (FAS) were transferred to the glovebag the day before use.
Stock SyrB1-PPT-Thr and SyrB2 were thawed on ice-water and centrifuged to remove any possible precipitate. Stock proteins were diluted in RXN buffer and transferred to individual ReactiVials (Thermo) sealed with septa on a pre-cooled ReactiBlock (Thermo). Protein was deoxygenated by piercing the ReactiVials with needles and purging the headspace with a continuous flow of Argon gas for 1 hr while continuously stirring the protein solution on ice bath. Reactivials were sealed and transferred to the glovebag. While deoxygenating the protein, halide salts were dissolved in RXN buffer in the glovebag. To individual 1.7 mL tubes, RXN buffer, ligand (NOG or 2OG), and halide (NaCl or NaF) were added and cooled to 4° C. The ReactiVials containing the proteins were sealed and transferred to the glovebag. […]

T1 sequence (Q9RBY6 whole entry): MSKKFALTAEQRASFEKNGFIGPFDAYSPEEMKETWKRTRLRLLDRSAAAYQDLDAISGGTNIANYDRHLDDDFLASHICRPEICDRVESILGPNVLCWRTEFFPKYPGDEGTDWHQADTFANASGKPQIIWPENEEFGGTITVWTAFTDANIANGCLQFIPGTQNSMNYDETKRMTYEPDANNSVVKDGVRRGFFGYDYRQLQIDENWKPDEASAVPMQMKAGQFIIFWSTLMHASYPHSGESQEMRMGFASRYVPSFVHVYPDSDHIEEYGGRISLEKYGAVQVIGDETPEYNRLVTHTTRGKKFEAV

## O=C(O)CNC(=O)C(=O)O [NOG, N-oxalylglycine]
In some of the reaction conditions with ligator
  side products (hydroxylated substrates) observed: little to no side products
Ligator 1 mM, NaF 10 mM, LC-MS/MS (FIG. 3)
  fluorination of Thr amino acid by SyrB2 halogenase: enabling fluorination of Thr amino acid
